Source: patent US20090062243A1, “Lupane-Type Triterpenoids Modified at 30-Position and Analogues Thereof” (ADVANCED LIFE SCIENCES, INC., priority 2007, published 2009)

system: HT-29 (colon carcinoma); assay: MTS cell viability assay, HT-29; assay type: cell-based; conditions: cells incubated 72 h
Experimental: (§1) Cells were plated, the evening before treatment, for each treatment on 96-well plates (1×10^4 cells/well) in 100 μL volume per well. Analog solutions were prepared by diluting each test compound in DSMO (10 mM) with the appropriate cell growth media for each individual cell line, or in “Universal Media” if several cell lines were to be assayed in parallel, immediately prior to cell treatment. Universal Media consisted of 5 mL sodium pyruvate (100× liquid stock, MediaTech), 5 mL glucose (100×, 45% liquid stock, MediaTech), 5 mL Penicillin/Streptomycin (100× liquid stock, MediaTech), 10 mL sodium bicarbonate (50× liquid stock, MediaTech), 25 mL Fetal Calf Serum, 1.25 mL insulin (4 mg/mL, Gibco) and […] RPMI media with 2 mM L-glutamine for a total volume of 500 mL.
(§2) Cells were treated by aspirating plating media from each well and adding 80 μL of betulinic acid (control) or each analog solution in serial dilutions to the adherent cells. All treatments were performed in triplicate. Growth media (80 μL) was added to 3 blank wells (no cells) to measure background from the growth media. Growth media alone (no DMSO or test compound) was added to 3 wells containing cells to measure the baseline MTS activity. Vehicle (DMSO) control in serial dilutions, added to cells, was also included to monitor basal toxicity from DMSO. Cells were incubated at 37° C. for 72 h, or 120 h for the OVCAR cell lines. MTS reagent (per 96-well plate) were prepared by combining 2 mL of MTS working solution (Cell Titer AQueous Non-Radioactive Cell Proliferation Assay, Promega, cat#G1112), 100 μL of 0.92 mg/mL phenazine methosulfate/Dulbecco's PBS and 2.1 mL growth media. MTS reagent (40 μL) were added to each well and incubated at 37° C. for 1.5 to 4 h. Plates were gently shaken by hand until solution in each well appeared homogenous. Absorbances at 490 nm were measured on a Wallac Victor II plate reader at multiple time points following the addition of MTS reagent for each plate. Triplicate absorbance (490 nm) measurements were averaged following background (no cell) subtraction for each drug concentration. Percent Cell Viability was calculated for each drug concentration using the following equation:
(§3) {[Absorbance(analog treated)]/[Absorbance(DMSO treated)]}×100%
(§4) Cytotoxicity dose response for the triterpenoid derivatives synthesized in SK-MEL-2 (melanoma), A-375 (melanoma), Daoy (glioblastoma), LN-229 (glioblastoma), OVCAR-3 (ovarian carcinoma), HT-29 (colon carcinoma), MCF-7 (breast carcinoma) cell lines using the standard MTS assay is summarized in Table 1. In Table 1, compounds 22a-d and compounds 23a-c refer to structures 22 and 23 in Scheme 5, respectively. Compounds 24aa-an and 24ba-bq refer to structure 24 in Scheme 6. Compounds 26a-e refer to structure 26 in Scheme 6. Compounds 36a-c refer to structure 36 in Scheme 10.

SMILES | IC50 [µM]
C=C(CO)[C@@H]1CC[C@]2(CO)CC[C@]3(C)[C@H](CC[C@@H]4[C@@]5(C)CCC(NCCOC)C(C)(C)[C@@H]5CC[C@]43C)[C@@H]12 (stereo partly shown) [Compound 24af] | 47
C=C(CNCCO)[C@@H]1CC[C@]2(COC3CCCCO3)CC[C@]3(C)[C@H](CC[C@@H]4[C@@]5(C)CCC(NCCc6ccc(O)cc6)C(C)(C)[C@@H]5CC[C@]43C)[C@@H]12 (stereo partly shown) [Compound 24be] | < 2
C=C(CNCCO)[C@@H]1CC[C@]2(COC3CCCCO3)CC[C@]3(C)[C@H](CC[C@@H]4[C@@]5(C)CCC(NCCO)C(C)(C)[C@@H]5CC[C@]43C)[C@@H]12 (stereo partly shown) [Compound 24bg] | 3

system: MCF-7 (breast carcinoma); assay: MTS cell viability assay, MCF-7; assay type: cell-based; conditions: cells incubated 72 h
Experimental: as §1, §2, §3, §4

SMILES | IC50 [µM]
C=C(CO)[C@@H]1CC[C@]2(CO)CC[C@]3(C)[C@H](CC[C@@H]4[C@@]5(C)CCC(NCCOC)C(C)(C)[C@@H]5CC[C@]43C)[C@@H]12 (stereo partly shown) [Compound 24af] | 40
C=C(CNCCO)[C@@H]1CC[C@]2(COC3CCCCO3)CC[C@]3(C)[C@H](CC[C@@H]4[C@@]5(C)CCC(NCCc6ccc(O)cc6)C(C)(C)[C@@H]5CC[C@]43C)[C@@H]12 (stereo partly shown) [Compound 24be] | 5
C=C(CNCCO)[C@@H]1CC[C@]2(COC3CCCCO3)CC[C@]3(C)[C@H](CC[C@@H]4[C@@]5(C)CCC(NCCO)C(C)(C)[C@@H]5CC[C@]43C)[C@@H]12 (stereo partly shown) [Compound 24bg] | 4

system: Daoy; assay: MTS cell viability assay, Daoy; assay type: cell-based; conditions: cells incubated 72 h
Experimental: as §1, §2, §3, §4

SMILES | IC50 [µM]
C=C(CO)[C@@H]1CC[C@]2(CO)CC[C@]3(C)[C@H](CC[C@@H]4[C@@]5(C)CCC(NCCOC)C(C)(C)[C@@H]5CC[C@]43C)[C@@H]12 (stereo partly shown) [Compound 24af] | 34
C=C(CNCCO)[C@@H]1CC[C@]2(COC3CCCCO3)CC[C@]3(C)[C@H](CC[C@@H]4[C@@]5(C)CCC(NCCc6ccc(O)cc6)C(C)(C)[C@@H]5CC[C@]43C)[C@@H]12 (stereo partly shown) [Compound 24be] | 0.5
C=C(CNCCO)[C@@H]1CC[C@]2(COC3CCCCO3)CC[C@]3(C)[C@H](CC[C@@H]4[C@@]5(C)CCC(NCCO)C(C)(C)[C@@H]5CC[C@]43C)[C@@H]12 (stereo partly shown) [Compound 24bg] | 5

system: OVCAR-3 (ovarian carcinoma); assay: MTS cell viability assay, OVCAR-3; assay type: cell-based; conditions: 120 h for the OVCAR cell lines
Experimental: as §1, §2, §3, §4

SMILES | IC50 [µM]
C=C(CO)[C@@H]1CC[C@]2(CO)CC[C@]3(C)[C@H](CC[C@@H]4[C@@]5(C)CCC(NCCOC)C(C)(C)[C@@H]5CC[C@]43C)[C@@H]12 (stereo partly shown) [Compound 24af] | 40

system: A-375 (melanoma); assay: MTS cell viability assay, A-375; assay type: cell-based; conditions: cells incubated 72 h
Experimental: as §1, §2, §3, §4

SMILES | IC50 [µM]
C=C(CO)[C@@H]1CC[C@]2(CO)CC[C@]3(C)[C@H](CC[C@@H]4[C@@]5(C)CCC(NCCOC)C(C)(C)[C@@H]5CC[C@]43C)[C@@H]12 (stereo partly shown) [Compound 24af] | 18
C=C(CNCCO)[C@@H]1CC[C@]2(COC3CCCCO3)CC[C@]3(C)[C@H](CC[C@@H]4[C@@]5(C)CCC(NCCc6ccc(O)cc6)C(C)(C)[C@@H]5CC[C@]43C)[C@@H]12 (stereo partly shown) [Compound 24be] | < 2
C=C(CNCCO)[C@@H]1CC[C@]2(COC3CCCCO3)CC[C@]3(C)[C@H](CC[C@@H]4[C@@]5(C)CCC(NCCO)C(C)(C)[C@@H]5CC[C@]43C)[C@@H]12 (stereo partly shown) [Compound 24bg] | < 2

system: SK-MEL-2 (melanoma); assay: MTS cell viability assay, SK-MEL-2; assay type: cell-based; conditions: cells incubated 72 h
Experimental: as §1, §2, §3, §4

SMILES | IC50 [µM]
C=C(CO)[C@@H]1CC[C@]2(CO)CC[C@]3(C)[C@H](CC[C@@H]4[C@@]5(C)CCC(NCCOC)C(C)(C)[C@@H]5CC[C@]43C)[C@@H]12 (stereo partly shown) [Compound 24af] | 38
C=C(CNCCO)[C@@H]1CC[C@]2(COC3CCCCO3)CC[C@]3(C)[C@H](CC[C@@H]4[C@@]5(C)CCC(NCCc6ccc(O)cc6)C(C)(C)[C@@H]5CC[C@]43C)[C@@H]12 (stereo partly shown) [Compound 24be] | 2
C=C(CNCCO)[C@@H]1CC[C@]2(COC3CCCCO3)CC[C@]3(C)[C@H](CC[C@@H]4[C@@]5(C)CCC(NCCO)C(C)(C)[C@@H]5CC[C@]43C)[C@@H]12 (stereo partly shown) [Compound 24bg] | 5

system: LN-229 (glioblastoma); assay: MTS cell viability assay, LN-229; assay type: cell-based; conditions: cells incubated 72 h
Experimental: as §1, §2, §3, §4

SMILES | IC50 [µM]
C=C(CO)[C@@H]1CC[C@]2(CO)CC[C@]3(C)[C@H](CC[C@@H]4[C@@]5(C)CCC(NCCOC)C(C)(C)[C@@H]5CC[C@]43C)[C@@H]12 (stereo partly shown) [Compound 24af] | 38
C=C(CNCCO)[C@@H]1CC[C@]2(COC3CCCCO3)CC[C@]3(C)[C@H](CC[C@@H]4[C@@]5(C)CCC(NCCc6ccc(O)cc6)C(C)(C)[C@@H]5CC[C@]43C)[C@@H]12 (stereo partly shown) [Compound 24be] | 18
C=C(CNCCO)[C@@H]1CC[C@]2(COC3CCCCO3)CC[C@]3(C)[C@H](CC[C@@H]4[C@@]5(C)CCC(NCCO)C(C)(C)[C@@H]5CC[C@]43C)[C@@H]12 (stereo partly shown) [Compound 24bg] | 18
